Experimental data published in EP0554004A2, “Cephem compounds and antibacterial agents” (KATAYAMA SEIYAKUSYO CO. Ltd., priority 1992, dated 1993).
Structures can show the parent of a compound that is named as a salt.

What was measured:
[1] = test system: Bacillus subtilis ATCC 6633; assay: MIC against standard strains (Test Example 1); type: cell-based; conditions: ATCC6633, Muller-Hinton agar, 37°C overnight
Description: (§1) By using each test strain cultured overnight at 37°C in a Muller-Hinton broth, there was prepared a bacterial solution with a bacterial cell population of 1 x 10^6 CFU/mi of the same bouillon. The bacterial solution was inoculated into the Muller-Hinton agar media each containing respectively one test agent and, after overnight incubation at 37°C, the minimum concentration that inhibited growth of the bacteria was determined and shown as MIC also in Table 1.
(§2) Staphylococcus aureus 167 and Staphylococcus aureus 195 used in the test were MRSA. CTM (cefotiam) and FMOX (flomoxef) were used as control agents.

[2] = test system: Citrobacter freundii ATCC 8090; assay: MIC against standard strains (Test Example 1); type: cell-based; conditions: ATCC8090, Muller-Hinton agar, 37°C overnight
Description: as §1, §2

[3] = test system: Enterobacter cloacae ATCC 13407; assay: MIC against standard strains (Test Example 1); type: cell-based; conditions: ATCC13407, Muller-Hinton agar, 37°C overnight
Description: as §1, §2

[4] = test system: Escherichia coli CSH2 (RE45); assay: MIC against standard strains (Test Example 1); type: cell-based
Description: as §1, §2

[5] = test system: Escherichia coli CSH2 (RK1); assay: MIC against standard strains (Test Example 1); type: cell-based
Description: as §1, §2

[6] = test system: Escherichia coli NIHJ JC-2; assay: MIC against standard strains (Test Example 1); type: cell-based; conditions: NIHJJC2, Muller-Hinton agar, 37°C overnight
Description: as §1, §2

[7] = test system: Klebsiella pneumoniae IFO 3317; assay: MIC against standard strains (Test Example 1); type: cell-based; conditions: IFO3317, Muller-Hinton agar, 37°C overnight
Description: as §1, §2

[8] = test system: Klebsiella pneumoniae No. 42; assay: MIC against standard strains (Test Example 1); type: cell-based; conditions: Muller-Hinton agar, 37°C overnight
Description: as §1, §2

[9] = test system: Micrococcus luteus ATCC 9341; assay: MIC against standard strains (Test Example 1); type: cell-based; conditions: ATCC9341, Muller-Hinton agar, 37°C overnight
Description: as §1, §2

[10] = test system: Morganella morganii IFO 3848; assay: MIC against standard strains (Test Example 1); type: cell-based; conditions: IFO3848, Muller-Hinton agar, 37°C overnight
Description: as §1, §2

[11] = test system: Proteus mirabilis IFO 3849; assay: MIC against standard strains (Test Example 1); type: cell-based; conditions: IFO3849, Muller-Hinton agar, 37°C overnight
Description: as §1, §2

[12] = test system: Proteus vulgalis OX-19; assay: MIC against standard strains (Test Example 1); type: cell-based; conditions: Muller-Hinton agar, 37°C overnight
Description: as §1, §2

[13] = test system: Pseudomonas aeruginosa NCTC 10490; assay: MIC against standard strains (Test Example 1); type: cell-based; conditions: NCTC10490, Muller-Hinton agar, 37°C overnight
Description: as §1, §2

[14] = test system: Psuedomonas aeruginosa IFO 3445; assay: MIC against standard strains (Test Example 1); type: cell-based; conditions: Muller-Hinton agar, 37°C overnight
Description: as §1, §2

[15] = test system: Serratia marcescens IAM 1184; assay: MIC against standard strains (Test Example 1); type: cell-based; conditions: IAM1184, Muller-Hinton agar, 37°C overnight
Description: as §1, §2

[16] = test system: Staphylococcus aureus 167; assay: MIC against standard strains (Test Example 1); type: cell-based; conditions: Staphylococcus aureus 167 (MRSA); Muller-Hinton agar, 37°C overnight
Description: as §1, §2

[17] = test system: Staphylococcus aureus 195; assay: MIC against standard strains (Test Example 1); type: cell-based; conditions: Staphylococcus aureus 195 (MRSA); Muller-Hinton agar, 37°C overnight
Description: as §1, §2

[18] = test system: Staphylococcus aureus 209P JC-1; assay: MIC against standard strains (Test Example 1); type: cell-based; conditions: Muller-Hinton agar, 37°C overnight
Description: as §1, §2

[19] = test system: Staphylococcus aureus Smith; assay: MIC against standard strains (Test Example 1); type: cell-based; conditions: Muller-Hinton agar, 37°C overnight
Description: as §1, §2

[20] = test system: Staphylococcus epidermidis IAM 1296; assay: MIC against standard strains (Test Example 1); type: cell-based; conditions: IAM1296, Muller-Hinton agar, 37°C overnight
Description: as §1, §2

[21] = test system: clinically isolated MRSA; assay: Antibacterial potency against clinically isolated MRSA (Test Example 2); type: cell-based, methicillin-resistant Staphylococcus aureus; conditions: Staphylococcus aureus, 52 strains of clinically isolated MRSA; for MIC50: concentration inhibiting growth of 50% of the strains (Test Example 2); for MIC90: concentration inhibiting growth of 90% of the strains (Test Example 2)
Description: A test on the antibacterial potency against clinically isolated MRSA was conducted in the following way.
52 strains of clinically isolated MRSA were used, and MIC was determined for each of the strains according to the standard method of the Japan Chemotherapical Society as in Test Example 1. The minimum growth inhibitory concentration which inhibited growth of 50% of the strains tested was expressed as MIC50 (µg/ml), and the minimum growth inhibitory concentration which inhibited growth of 90% of the strains was expressed as MIC90 (µg/ml).
In this test, FMOX (flomoxef), IPM/CS (imipenem/cilastatin), CMZ (cefmetazole), MINO (minocycline) and DMPPC (methicillin) were used as control agents.

Compound	MIC [1]	MIC [2]	MIC [3]	MIC [4]	MIC [5]	MIC [6]	MIC [7]	MIC [8]	MIC [9]	MIC [10]	MIC [11]	MIC [12]	MIC [13]	MIC [14]	MIC [15]	MIC [16]	MIC [17]	MIC [18]	MIC [19]	MIC [20]	also measured
NC(=O)c1ccc[n+](CC2=C(C(=O)[O-])N3C(=O)[C@@H](NC(=O)/C(=N\O)c4csc(N)n4)[C@H]3SC2)c1 [Compound (1), 7β-[2-(2-aminothiazol-4-yl)-2-syn-hydroxyiminoacetamido]-3-[(3-carbamoyl-1-pyridinio)methyl]-3-cephem-4-carboxylic acid chloride]	0.39 µg/mL	0.39 µg/mL	0.78 µg/mL	0.39 µg/mL	0.78 µg/mL	0.39 µg/mL	0.2 µg/mL	0.78 µg/mL	0.05 µg/mL	0.39 µg/mL	0.39 µg/mL	0.78 µg/mL	3.13 µg/mL	25 µg/mL	0.2 µg/mL	6.25 µg/mL	3.13 µg/mL	0.2 µg/mL	0.39 µg/mL	0.1 µg/mL	MIC50 [21]: 3.79 µg/mL; MIC90 [21]: 11.4 µg/mL
CC(=O)c1ccc[n+](CC2=C(C(=O)[O-])N3C(=O)[C@@H](NC(=O)/C(=N\O)c4csc(N)n4)[C@H]3SC2)c1 [Compound (2), 7β-[2-(2-aminothiazol-4-yl)-2-syn-hydroxyiminoacetamido]-3-[(3-acetyl-1-pyridinio)methyl]-3-cephem-4-carboxylic acid chloride]	0.78 µg/mL	0.39 µg/mL	1.56 µg/mL	0.78 µg/mL	0.78 µg/mL	0.39 µg/mL	0.39 µg/mL	0.78 µg/mL	0.1 µg/mL	0.2 µg/mL	0.39 µg/mL	0.39 µg/mL	3.13 µg/mL	25 µg/mL	0.39 µg/mL	12.5 µg/mL	6.25 µg/mL	0.2 µg/mL	0.39 µg/mL	0.2 µg/mL	MIC50 [21]: 3.77 µg/mL; MIC90 [21]: 9.47 µg/mL
Nc1ccc[n+](CC2=C(C(=O)[O-])N3C(=O)[C@@H](NC(=O)/C(=N\O)c4csc(N)n4)[C@H]3SC2)c1 [Compound (3), 7β-[2-(2-aminothiazol-4-yl)-2-syn-hydroxyiminoacetamido]-3-[(3-amino-1-pyridinio)methyl]-3-cephem-4-carboxylate hydrochloride]	0.2 µg/mL	0.2 µg/mL	3.13 µg/mL	0.2 µg/mL	0.39 µg/mL	0.2 µg/mL	0.1 µg/mL	0.2 µg/mL	0.05 µg/mL	0.05 µg/mL	0.2 µg/mL	0.39 µg/mL	3.13 µg/mL	6.25 µg/mL	0.1 µg/mL	12.5 µg/mL	3.13 µg/mL	0.2 µg/mL	0.39 µg/mL	0.1 µg/mL	MIC50 [21]: 3.94 µg/mL; MIC90 [21]: 9.21 µg/mL
NC(=O)Nc1ccc[n+](CC2=C(C(=O)[O-])N3C(=O)[C@@H](NC(=O)/C(=N\O)c4csc(N)n4)[C@H]3SC2)c1 [Compound (4), 7β-[2-(2-aminothiazol-4-yl)-2-syn-hydroxyiminoacetamido]-3-[(3-ureido-1-pyridinio)methyl]-3-cephem-4-carboxylic acid chloride]	0.2 µg/mL	0.1 µg/mL	0.39 µg/mL	0.39 µg/mL	0.78 µg/mL	0.1 µg/mL	0.1 µg/mL	0.39 µg/mL	0.39 µg/mL	0.05 µg/mL	0.1 µg/mL	0.78 µg/mL	1.56 µg/mL	12.5 µg/mL	0.1 µg/mL	12.5 µg/mL	3.13 µg/mL	0.1 µg/mL	0.2 µg/mL	0.05 µg/mL	MIC50 [21]: 2.17 µg/mL; MIC90 [21]: 6.16 µg/mL
Nc1nc(/C(=N/O)C(=O)N[C@@H]2C(=O)N3C(C(=O)[O-])=C(C[n+]4ccc(-c5csc(N)n5)cc4)CS[C@H]23)cs1 [Compound (5), 7β-[2-(2-aminothiazol-4-yl)-2-syn-hydroxyiminoacetamido]-3-[[4-(2-aminothiazol-4-yl)-1-pyridi-i-nio]methyl]-3-cephem-4-carboxylic acid chloride]	0.2 µg/mL	0.2 µg/mL	0.78 µg/mL	0.05 µg/mL	0.2 µg/mL	0.2 µg/mL	0.05 µg/mL	0.1 µg/mL	0.025 µg/mL	0.05 µg/mL	0.1 µg/mL	0.2 µg/mL	1.56 µg/mL	25 µg/mL	0.2 µg/mL	6.25 µg/mL	3.13 µg/mL	0.2 µg/mL	0.2 µg/mL	0.1 µg/mL	MIC50 [21]: 3.13 µg/mL; MIC90 [21]: 8.69 µg/mL
